Among the data in PubChem BioAssay (NCI) are TGI and GI50 values, retold here.

Some test systems named below: 786-0 renal; SNB-75 CNS; A498 renal; NCI-H226 lung; PC-3 prostate; HS 578T breast; T-47D breast; EKVX NSCLC; OVCAR-4 ovarian; SK-MEL-28 melanoma.
Common to all, as to assay: NCI tumour cell line growth inhibition, 48 h

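96-well plates; 48 h exposure; 5 concentrations. Endpoints by linear interpolation between flanking doses. Not reached: highest tested concentration assigned. Here, GI50 denotes the concentration required for 50% inhibition of growth. TGI is the concentration that stops growth completely.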

As to `Cc1ccc2c(c1)NC(=O)CC(c1ccccc1)=N2`, the TGI in the assay on 786-0 renal, with SNB-75 CNS, in the assay on A498 renal, in the assay on NCI-H226 lung, in the assay with PC-3 prostate and with HS 578T breast was greater than 100 µM throughout. Moreover, the TGI in the assay on T-47D breast, in the assay with EKVX NSCLC, in the assay on OVCAR-4 ovarian and in the assay with SK-MEL-28 melanoma was greater than 100 µM each time.

For the molecule `COc1ccc(C(=O)c2cc3c(OC)c(OC)c(OC)cc3[nH]2)cc1`, the GI50 in the assay on 786-0 renal was 11.9 µM; with SNB-75 CNS, 6.84 µM; in the assay with A498 renal it was 6.45 µM; in the assay on NCI-H226 lung, greater than 100 µM; in the assay with PC-3 prostate it was greater than 100 µM; with HS 578T breast, 4.25 µM. The GI50 in the assay with T-47D breast is 4.53 µM; in the assay with EKVX NSCLC, 5.14 µM; with OVCAR-4 ovarian, greater than 100 µM; with SK-MEL-28 melanoma it was 8.79 µM. The TGI with 786-0 renal was greater than 100 µM; in the assay on SNB-75 CNS, 28.5 µM; in the assay on A498 renal, 47.7 µM; in the assay on NCI-H226 lung, greater than 100 µM; with PC-3 prostate, greater than 100 µM; in the assay on HS 578T breast, greater than 100 µM. Further, the TGI in the assay on T-47D breast, in the assay on EKVX NSCLC, in the assay on OVCAR-4 ovarian and with SK-MEL-28 melanoma was greater than 100 µM each time.

On to `COc1cccc2c1C(=O)c1c(O)c3c(c(O)c1C2=O)C[C@@](O)(C(=O)CO)C[C@@H]3OC1C[C@H](N)[C@H](O)[C@H](C)O1` (some centres undefined), for which the GI50 in the assay on 786-0 renal is 0.0324 µM; with SNB-75 CNS, 0.034 µM; with A498 renal, 0.0482 µM; with NCI-H226 lung, 0.0201 µM; in the assay with PC-3 prostate, 0.112 µM; in the assay on HS 578T breast, 0.132 µM. Also, the GI50 in the assay on T-47D breast is 0.0409 µM; in the assay on EKVX NSCLC, 0.201 µM; in the assay with OVCAR-4 ovarian, 0.133 µM; in the assay on SK-MEL-28 melanoma, 0.0797 µM. For the same molecule, the TGI in the assay on 786-0 renal came out at 1.19 µM; in the assay on SNB-75 CNS, 0.147 µM; with A498 renal it was 0.146 µM; in the assay with NCI-H226 lung it was 0.102 µM; in the assay with PC-3 prostate it was 1.22 µM; in the assay with T-47D breast it was 1.06 µM. The TGI in the assay on EKVX NSCLC came out at 5.28 µM; with OVCAR-4 ovarian it was 2.9 µM; in the assay with SK-MEL-28 melanoma it was 0.198 µM.

In the case of `Cc1ccc2c(O)c(O)cc(NC(C)CCCN)c2n1` (centres undefined), the GI50 in the assay on 786-0 renal was greater than 100 µM; with SNB-75 CNS it was 24.6 µM; with A498 renal it was greater than 100 µM; in the assay with NCI-H226 lung, 44.9 µM; with PC-3 prostate, 22.9 µM; in the assay on HS 578T breast, 13.9 µM. In addition, the GI50 in the assay with T-47D breast is 6.57 µM; in the assay with EKVX NSCLC, 25.3 µM; with OVCAR-4 ovarian, 2.88 µM; with SK-MEL-28 melanoma it was 27.3 µM. The TGI with 786-0 renal is greater than 100 µM; in the assay on SNB-75 CNS it was greater than 62.7 µM; in the assay with A498 renal it was greater than 100 µM; in the assay on NCI-H226 lung it was greater than 100 µM; in the assay on PC-3 prostate, greater than 66.5 µM; with HS 578T breast it was 49.4 µM. For the same molecule, the TGI with T-47D breast was 38.3 µM; in the assay on EKVX NSCLC it was greater than 83.1 µM; in the assay with OVCAR-4 ovarian, 9.88 µM; with SK-MEL-28 melanoma, 55.3 µM.

Consider `COc1cccc(/C=C/c2cnc3ccccc3n2)c1OC`, for which the TGI was greater than 100 µM in the assay on 786-0 renal; 79.6 µM with SNB-75 CNS; greater than 100 µM in the assay with A498 renal; greater than 100 µM in the assay on NCI-H226 lung; greater than 100 µM in the assay with PC-3 prostate; 68.5 µM in the assay with HS 578T breast. In addition, the TGI is 82.9 µM in the assay with T-47D breast, greater than 100 µM with EKVX NSCLC, greater than 100 µM in the assay with OVCAR-4 ovarian and greater than 100 µM in the assay with SK-MEL-28 melanoma.

As for `Cc1cc(C)c(O)c(CN(C)Cc2cc(Cl)cc(Cl)c2O)c1`, the GI50 in the assay with 786-0 renal is 9.38 µM; with SNB-75 CNS, 11.5 µM; in the assay with A498 renal it was 5.69 µM; in the assay with NCI-H226 lung, 6.56 µM; with PC-3 prostate, 6.97 µM; in the assay with HS 578T breast, 5.41 µM. Further, the GI50 is 4.07 µM in the assay on T-47D breast, 4.52 µM in the assay on EKVX NSCLC, 2.62 µM in the assay on OVCAR-4 ovarian and 11.4 µM in the assay with SK-MEL-28 melanoma. In addition, the TGI turned out to be 28.6 µM with 786-0 renal; 36.4 µM with SNB-75 CNS; 21.9 µM with A498 renal; 23.1 µM in the assay on NCI-H226 lung; 42.3 µM in the assay with PC-3 prostate; 32.8 µM in the assay on HS 578T breast. Further, the TGI in the assay on T-47D breast is 15.2 µM; with EKVX NSCLC it was 30.7 µM; with OVCAR-4 ovarian, 10.6 µM; with SK-MEL-28 melanoma, 24 µM.

Consider `O=C(c1ccco1)c1c(C(F)(F)F)n([O-])c2ccccc2[n+]1=O`, for which the GI50 was 0.42 µM with 786-0 renal; 8.36 µM with SNB-75 CNS; 1.57 µM in the assay with A498 renal; 0.665 µM with NCI-H226 lung; 0.338 µM with PC-3 prostate; 1.75 µM in the assay with HS 578T breast. Further, the GI50 in the assay on T-47D breast was 1.97 µM; with EKVX NSCLC it was 0.226 µM; with OVCAR-4 ovarian, 5.45 µM; with SK-MEL-28 melanoma, 15.9 µM. Moreover, the TGI with 786-0 renal worked out at 1.83 µM; with SNB-75 CNS it was 25.1 µM; with A498 renal it was 8.27 µM; in the assay with NCI-H226 lung, 4.31 µM; in the assay with PC-3 prostate it was 3.61 µM; in the assay with HS 578T breast, 13.1 µM. The TGI came out at 29.7 µM with T-47D breast, 0.741 µM in the assay on EKVX NSCLC, 15.4 µM in the assay on OVCAR-4 ovarian and 50 µM in the assay on SK-MEL-28 melanoma.
